The subject of series [1] is Male Sprague Dawley rats on high fat diet. In words: 11 day rat DIO model (body weight, food intake, hematology, blood chemistries). It counts as in vivo. The following applies: 264 h, read-out: DIO Rat 11-day weight loss vs vehicle. The gist of the method:
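Male Sprague Dawley rats on 45% high-fat diet, acclimated 3 days to vehicle injections, then given compound (0.03-1.0 mg/kg) or vehicle (10% DMSO in water) sc once daily for 11 days. Body weight and food intake recorded daily. Blood taken about 2 h after the final dose for hematology and chemistry.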

Series [2] concerns Diet Induced Obese (DIO) C57BL/6 mice. In words: 10 day DIO mouse model (body weight, food intake, hematology, blood chemistry). Format: in vivo. The following applies: 240 h, read-out: DIO Mouse 10-day weight loss vs vehicle; for inhibition in vivo at 0.1 mg/kg: 0.1 mpk sc; for inhibition in vivo at 1 mg/kg: 1.0 mpk sc. The procedure, abridged: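 DIO C57BL/6 mice on 60% kcal fat diet received compounds subcutaneously once daily for 10 days at 1.0, 0.5, 0.3, 0.1 or 0.03 mpk, in 10% DMSO in water, after 3-day vehicle acclimation. Body weight and food intake were recorded daily. Hematology and blood chemistry were taken on Day 11, 24 h post-final dose.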

The subject of series [3] is pregnant Sprague Dawley rats (embryo/fetal development). An excerpt: Study Summary Rat Embryofetal:
The objective of this study design was to evaluate the potential effects of disclosed compounds on embryo/fetal development when given subcutaneously to pregnant rats once every three days during the critical period of organogenesis (Gestation Days 6-18). Female, Sprague Dawley rats, approximately 10 weeks of age, time bred, were ordered from a certified vendor and housed individually housed in stainless steel cages suspended over flush pans, on a 12-hour light-dark cycle (0700-1900) at 20-26° C. and 30-70% humidity. Rats were fed a standard rodent chow and provided water ad libitum. Rats were received and housed in the facility for a period of approximately 1 to 2 days.
Compounds were formulated using 100% DMSO mixed in Sterile Water for Injection, resulting in 2% DMSO solution in water. If necessary, due to limited solubility of a test article, a higher percentage of DMSO solution in water was used. Groups of 8 mated and presumed pregnant female rats were given subcutaneous doses of vehicle or test article, once every three days, beginning on Gestation Day 6 and ending on Gestation Day 18 (Days 6, 9, 12, 15, and 18), maintained two more days, and then euthanized and necropsied on Gestation Day 20. Body weights was recorded for all animals on Gestation Days 5 (purpose of randomization), 6, 9, 12, 15, 18, and 20 (scheduled euthanasia). Food consumption by weight was recorded on Gestation Days 6, 9, 12, 15, 18, and 20 (scheduled termination).
At necropsy, the dams were examined visually for external abnormalities including palpable masses. The abdominal, thoracic, and cranial cavities and their contents were examined for abnormalities and findings will be recorded. The reproductive tract were examined to record the number of ovarian corpora lutea, the number and location of uterine implantation sites noting the position of the cervix, and the number of early resorptions, late resorptions, live fetuses, and dead fetuses. For dead fetuses and late resorptions, crown-to-rump length and weight were recorded, if possible, and the fetus was discarded. For viable fetuses, weight, sex, and grossly visible external abnormalities were recorded.

For a further series, the target named is recombinant human MetAP2 (Homo sapiens (Human), UniProt P50579). In words: recombinant human MetAP2 enzyme inhibition assay. It counts as biochemical. On the procedure:
Compounds are tested for their capacity to inhibit recombinant human MetAP2 activity using the following assay.
Flag tagged Human recombinant MetAP2 expressed and isolated for use as the enzyme source. 10 mM stock solutions of compounds were prepared in 100% DMSO and further diluted in 100% DMSO required concentration to 1 mM stocks. The stock compound solutions and DMSO vehicle controls were diluted to target final compound concentrations using assay buffer to a final concentration of 50 mM HEPES containing 100 mM NaCl, pH adjusted to 7.5. The MAS peptide was formulated to a 7.5 mM stock in distilled water and prior to use further diluted 1:4. […] 40 μl of enzyme was mixed with 100 μl of MnCl2 then further diluted in assay buffer to a final concentration of 16 μg/ml. To test for compound effect on MetAP2 enzyme activity, 5 μl of test compound, 10 μl of MAS substrate/amino acid oxidase mixture, 10 μl of MetAP2 was added to test wells in a 384 well black plate with blank wells containing no enzyme, replaced with 10 μl of assay buffer. All compounds were tested in duplicate on two occasions on the same day.
The plate was sealed with a TopSeal A cover and mixed briefly on an orbital mixer at 900 rpm. The plate was incubated for a further 25 minutes at 25° C. A 5× stock of Amplex buffer was prepared (0.25M sodium phosphate, pH 7.4) and stored at 4° C. […] 25 μl detection reagent was added to each well of the test plate, which was re-sealed and mixed briefly on an orbital shaker.

Where [4] appears, read: recombinant human MetAP2, MAS peptide substrate, 25 minutes at 25° C.
The mark [5] stands for this setting: DIO rat, 0.3 mpk sc, once a day for 11 days.
[6] abbreviates: DIO rat, 1.0 mpk sc, once a day for 11 days.
[7] abbreviates: DIO mouse, 0.3 mpk sc, once a day for 10 days.
The mark [8] stands for this setting: 6 mpk, subcutaneous, once every three days, Gestation Days 6-18, pregnant rats.
Setting [9] is: DIO mouse, once a day for 10 days.

Molecules are shown by their SMILES. Structures can show the parent of a compound that is named as a salt. Where two headings read alike, the source gives them in different places.

recombinant human MetAP2, sequence (P50579 whole entry): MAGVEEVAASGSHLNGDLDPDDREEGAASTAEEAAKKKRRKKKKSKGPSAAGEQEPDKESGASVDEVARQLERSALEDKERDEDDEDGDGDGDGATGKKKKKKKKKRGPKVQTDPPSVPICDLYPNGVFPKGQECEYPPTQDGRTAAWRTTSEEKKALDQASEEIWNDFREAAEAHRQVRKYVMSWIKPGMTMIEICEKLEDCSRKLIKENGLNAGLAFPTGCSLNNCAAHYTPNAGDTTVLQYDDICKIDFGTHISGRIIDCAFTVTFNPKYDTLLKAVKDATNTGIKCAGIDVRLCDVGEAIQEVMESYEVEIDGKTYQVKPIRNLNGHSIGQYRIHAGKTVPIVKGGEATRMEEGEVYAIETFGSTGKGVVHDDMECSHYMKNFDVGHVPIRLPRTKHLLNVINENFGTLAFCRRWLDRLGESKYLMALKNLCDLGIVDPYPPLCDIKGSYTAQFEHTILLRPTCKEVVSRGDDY

As for `CO[C@@H]1[C@H](OC(=O)N2CC(CCN3CC(C)(O)C3)C2)CC[C@]2(CO2)[C@H]1[C@@]1(C)O[C@@H]1CC=C(C)C` [Example 9, (3R,4S,5S,6R)-5-methoxy-4-((2R,3R)-2-methyl-3-(3-methylbut-2-enyl)oxiran-2-yl)-1-oxaspiro[2.5]octan-6-yl 3-(2-(3-hydroxy-3-methylazetidin-1-yl)ethyl)azetidine-1-carboxylate formate], in series [1] (Rattus norvegicus, sc), the inhibition in vivo at 0.3 mg/kg came to 5.5% and the inhibition in vivo at 1 mg/kg was 4.8%. Besides, the inhibition in vivo at 0.3 mg/kg in series [2] (Mus musculus, sc) is 7.4%. Further, the “Rat Embryofetal @6 mpk” value in series [3] (rat, in vivo) is recorded as “Positive”.
As a reminder, the IC50 is the midpoint of a concentration-inhibition curve. Take `CNC(=O)OC1CN(C(=O)O[C@@H]2CC[C@]3(CO3)[C@@H]([C@@]3(C)O[C@@H]3CC=C(C)C)[C@@H]2OC)C1` [Example 74, (3R,4S,5S,6R)-5-methoxy-4-((2R,3R)-2-methyl-3-(3-methylbut-2-enyl)oxiran-2-yl)-1-oxaspiro[2.5]octan-6-yl 3-(methylcarbamoyloxy)azetidine-1-carboxylate]: the IC50 at recombinant human MetAP2 (setting [4]) is less than 50 nM. Further, the inhibition in vivo at 0.3 mg/kg was found to be 7.9% in series [1] (setting [5]) and 12.3% in series [2] (setting [7]). Moreover, in series [1] (setting [6]), the inhibition in vivo at 1 mg/kg came out at 6%. Further, in series [3] (setting [8]), the “Rat Embryofetal @6 mpk” value is “Negative”.
Consider `CO[C@@H]1[C@H](OC(=O)N2CC(OC(=O)N3CCN(C)CC3)C2)CC[C@]2(CO2)[C@H]1[C@@]1(C)O[C@@H]1CC=C(C)C` [Example 78, 1-(((3R,4S,5S,6R)-5-methoxy-4-((2R,3R)-2-methyl-3-(3-methylbut-2-enyl)oxiran-2-yl)-1-oxaspiro[2.5]octan-6-yloxy)carbonyl)azetidin-3-yl 4-methylpiperazine-1-carboxylate], for which the figures for the inhibition in vivo at 0.3 mg/kg in series [1] (setting [5]) and in series [2] (setting [7]) were 1.2% and 10.7%, respectively. In series [3] (setting [8]), the “Rat Embryofetal @6 mpk” value is reported as “Positive”.
Regarding `CCN(CC)CCNC(=O)CCC1CN(C(=O)O[C@@H]2CC[C@]3(CO3)[C@@H]([C@@]3(C)O[C@@H]3CC=C(C)C)[C@@H]2OC)C1` [Example 88, (3R,4S,5S,6R)-5-methoxy-4-((2R,3R)-2-methyl-3-(3-methylbut-2-enyl)oxiran-2-yl)-1-oxaspiro[2.5]octan-6-yl 3-(3-(2-(diethylamino)ethylamino)-3-oxopropyl)azetidine-1-carboxylate formate], the IC50 at recombinant human MetAP2 was less than 50 nM. In addition, the inhibition in vivo at 0.3 mg/kg was 4.4% in series [1] (Rattus norvegicus, sc) and 9% in series [2] (Mus musculus, sc). Further, in series [3] (rat, in vivo), the “Rat Embryofetal @6 mpk” value was “Positive”.
For the molecule `CO[C@@H]1[C@H](OC(=O)N2CC(Cc3ccc(C)nc3)C2)CC[C@]2(CO2)[C@H]1[C@@]1(C)O[C@@H]1CC=C(C)C` [Example 101, (3R,4S,5S,6R)-5-methoxy-4-((2R,3R)-2-methyl-3-(3-methylbut-2-enyl)oxiran-2-yl)-1-oxaspiro[2.5]octan-6-yl 3-((6-methylpyridin-3-yl)methyl)azetidine-1-carboxylate], the inhibition in vivo at 0.3 mg/kg is 3.9% in series [1] (setting [5]) and 15.6% in series [2] (setting [7]). For the same molecule, in series [3] (setting [8]), the “Rat Embryofetal @6 mpk” value is listed as “Positive”.
`CCN(CC)CCC1CN(C(=O)O[C@@H]2CC[C@]3(CO3)[C@@H]([C@@]3(C)O[C@@H]3CC=C(C)C)[C@@H]2OC)C1` [Example 103, (3R,4S,5S,6R)-5-methoxy-4-((2R,3R)-2-methyl-3-(3-methylbut-2-enyl)oxiran-2-yl)-1-oxaspiro[2.5]octan-6-yl 3-(2-(diethylamino)ethyl)azetidine-1-carboxylate]: on recombinant human MetAP2 (setting [4]), the IC50 is less than 50 nM. In series [1] (DIO rat, 0.5 mpk sc, once a day for 11 days), the inhibition in vivo at 0.5 mg/kg was 2.57%. In addition, the inhibition in vivo at 1 mg/kg in series [1] (setting [6]) came out at 4.7%. In series [2] (setting [9]), the inhibition in vivo at 0.1 mg/kg is 5.1% and the inhibition in vivo at 1 mg/kg worked out at 15.8%. Also, the inhibition in vivo at 0.3 mg/kg in series [2] (setting [7]) came out at 6.7%. Moreover, the “Rat Embryofetal @6 mpk” value in series [3] (setting [8]) was “Positive”.
`CCN(CC)CCCC1CN(C(=O)O[C@@H]2CC[C@]3(CO3)[C@@H]([C@@]3(C)O[C@@H]3CC=C(C)C)[C@@H]2OC)C1` [Example 104, (3R,4S,5S,6R)-5-methoxy-4-((2R,3R)-2-methyl-3-(3-methylbut-2-enyl)oxiran-2-yl)-1-oxaspiro[2.5]octan-6-yl 3-(3-(diethylamino)propyl)azetidine-1-carboxylate]: the results for the inhibition in vivo at 0.3 mg/kg in series [1] (setting [5]) and in series [2] (setting [7]) were 1.2% and 6.4%, respectively. The inhibition in vivo at 1 mg/kg was found to be 9.9% in series [1] (setting [6]) and 10.9% in series [2] (setting [9]). For the same molecule, the inhibition in vivo at 0.03 mg/kg in series [2] (DIO mouse, 0.03 mpk sc, once a day for 10 days) is -0.9%. In addition, the inhibition in vivo at 0.1 mg/kg in series [2] (setting [9]) turned out to be 8.3%. Besides, the “Rat Embryofetal @6 mpk” value in series [3] (setting [8]) was “Positive”.
